Results on twelve compounds are retold here after ChEMBL document CHEMBL1201862, “PubChem BioAssay data set” (2004).

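All cell lines were grown in 96-well plates and treated with compound for 48 hours. GI50: concentration for 50% inhibition of growth.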 The source made the active and inactive calls. No stated cut-off is given here; in the data, active = GI50 up to about 1.1 µM and inactive = higher.

Assay in all cases: growth of human tumour cells (NCI), 48 h
In test [1] the test system is NCI-H226.
Test [2] deals with HCT-15.
Test [3] concerns NCI-H23.
Test [4] has as its system ACHN.
The test system of test [5] is OVCAR-8.
For test [6], the system named is KM12.
Test [7] relates to SW-620.
The test system of test [8] is NCI-H460.
The test system of test [9] is A549.
Test [10] deals with HCC 2998.
Test [11] has as its system EKVX.
Test [12] has as its system SNB-75.
Test [13] concerns RPMI-8226.
For test [14], the system named is SF-268.
Test [15] concerns SN12C.
The subject of test [16] is CAKI-1.
Test [17] has as its system IGROV-1.
Test [18] concerns HOP-62.
In test [19] the test system is OVCAR-3.
Test [20] relates to NCI-H522.

As to `OCc1cc2ccncc2c2c1[nH]c1ccccc12`, the GI50 is 2.13 µM (inactive) in [1]; 5.64 µM in test [2]; 7.26 µM (inactive) in test [3]; 3.83 µM (inactive) in test [4]; 4.95 µM (inactive) in test [5]; 4.68 µM (inactive) in [6]. The GI50 in test [7] was 3.29 µM (inactive); in test [8] it was 2.76 µM (inactive); in [9], 4.37 µM (inactive); in [10], 2.44 µM (inactive); in [11], 3.91 µM (inactive); in test [12], 4.51 µM (inactive). Besides, the GI50 in test [13] is 6.31 µM (inactive); in [14], 4.66 µM (inactive); in [15], 5.42 µM (inactive); in test [16], 4.65 µM (inactive); in test [17], 2.73 µM (inactive).

`c1ccc2c(c1)c1ccccc1n2Cn1c2ccccc2c2ccccc21`: the GI50 in test [1] is > 100 µM (inactive); in test [18], > 100 µM (inactive); in test [2], greater than 100 µM; in test [3] it was > 100 µM (inactive); in [4], > 100 µM (inactive); in test [5] it was > 100 µM (inactive). Moreover, the GI50 in [6], in [7], in test [8], in test [9], in test [19] and in test [11] was > 100 µM (inactive) each time. Besides, the GI50 in test [20] is > 100 µM (inactive); in test [12] it was 30.8 µM (inactive); in [13], > 100 µM (inactive); in [14], > 100 µM (inactive); in test [15], > 100 µM (inactive); in [16], > 100 µM (inactive). Further, the GI50 in [17] is > 100 µM (inactive).

Take `C=CNC(=S)n1nc(-c2ccccc2NC(=O)C(F)(F)F)c(=O)n(C(=S)NC=C)c1=S`: the GI50 in [1] was 21.2 µM (inactive); in [18], 29.6 µM (inactive); in test [2], 16.4 µM; in test [3], 26.7 µM (inactive); in [4], 24.4 µM (inactive); in test [5], 33 µM (inactive). Moreover, the GI50 in [6] is 29.3 µM (inactive); in test [7], 59.8 µM (inactive); in test [8], 15.1 µM (inactive); in [19], 13.3 µM (inactive); in test [10], 47.9 µM (inactive); in test [11] it was 22.3 µM (inactive). The GI50 in test [20] was 11.2 µM (inactive); in test [12], 26 µM (inactive); in test [14], 15.4 µM (inactive); in test [15], 48.9 µM (inactive); in [16] it was 23.1 µM (inactive); in [17], 54 µM (inactive).

`CCc1cc2c(oc3cc4ccccc4cc32)c(=O)[nH]1`: the GI50 is > 10 µM (inactive) in test [1]; greater than 10 µM in test [2]; > 10 µM (inactive) in test [4]; > 10 µM (inactive) in [5]; > 10 µM (inactive) in [6]; > 10 µM (inactive) in [7]. The GI50 in [8], in test [9], in [19], in [10], in [11] and in test [20] was > 10 µM (inactive) each time. For the same compound, the GI50 in test [12], in test [14], in test [15] and in test [17] was > 10 µM (inactive) in each case.

Turning to `O=C1CC2(CCC(O)(c3ccccc3)C(C(=O)c3ccccc3)C2)C(=O)c2ccccc2N1` (centres undefined), the GI50 in test [1] was > 100 µM (inactive); in test [18], > 100 µM (inactive); in test [2], greater than 100 µM; in [3], > 100 µM (inactive); in test [5], > 100 µM (inactive); in test [7], > 100 µM (inactive). The GI50 in test [8], in test [9], in [19], in test [10], in [11] and in test [12] was > 100 µM (inactive) each time. The GI50 in [14], in [15], in test [16] and in [17] was > 100 µM (inactive) throughout.

Take `CCN(CC)CCSc1nc(-c2c[nH]c3nc(C)ccc3c2=O)n[nH]1`: the GI50 is > 100 µM (inactive) in [1]; > 100 µM (inactive) in test [18]; greater than 100 µM in test [2]; > 100 µM (inactive) in test [3]; > 100 µM (inactive) in [4]; > 100 µM (inactive) in test [5]. Moreover, the GI50 in test [6], in [7], in [8], in test [9], in test [19] and in test [11] was > 100 µM (inactive) each time. Further, the GI50 in [20], in test [13], in test [14], in test [15], in [16] and in test [17] was > 100 µM (inactive) in each case.

`CCOC(=O)/C=C(\C)c1ccc(C)cc1C`: the GI50 in test [1] was > 100 µM (inactive); in test [2], 29.9 µM; in [3], 45.4 µM (inactive); in test [4], > 100 µM (inactive); in test [5], > 100 µM (inactive); in test [6] it was 72.3 µM (inactive). Moreover, the GI50 is 17.8 µM (inactive) in test [7]; > 100 µM (inactive) in test [8]; > 100 µM (inactive) in test [9]; > 100 µM (inactive) in test [10]; > 100 µM (inactive) in test [11]; 75.3 µM (inactive) in test [12]. Also, the GI50 in test [13] is 7.28 µM (inactive); in [14], > 100 µM (inactive); in [15], 39.8 µM (inactive); in [16], > 100 µM (inactive); in test [17], > 100 µM (inactive).

In the case of `Nc1nncc2c1ccn2C1OC(CO)C(O)C1O` (centres undefined), the GI50 in test [1] was > 100 µM (inactive); in test [18], > 100 µM (inactive); in [2] it was greater than 100 µM; in test [3], > 100 µM (inactive); in [4], > 100 µM (inactive); in test [5] it was > 100 µM (inactive). The GI50 in test [6], in [7], in test [8], in test [9], in test [19] and in test [10] was > 100 µM (inactive) in each case. Also, the GI50 in test [11], in test [12], in test [13], in [14], in test [15] and in test [17] was > 100 µM (inactive) in each case.

Consider `CSC1=N/C(=C\c2ccccc2)C(=O)N1CN1CCCCC1`, for which the GI50 in test [1] was 35.7 µM (inactive); in test [18], > 100 µM (inactive); in [2] it was greater than 10 µM; in test [3] it was 76.6 µM (inactive); in test [4] it was 34.9 µM (inactive); in [5] it was 30.1 µM (inactive). The GI50 in test [6] was 65 µM (inactive); in test [7], 44.4 µM (inactive); in test [9] it was 87.7 µM (inactive); in test [19], > 100 µM (inactive); in test [11], 51.1 µM (inactive); in test [20] it was 42.3 µM (inactive). In addition, the GI50 in test [12] is 56.1 µM (inactive); in test [13] it was 27.4 µM (inactive); in [14], 55.5 µM (inactive); in [15], > 100 µM (inactive); in test [17] it was 38.7 µM (inactive).

For the compound `CCC1(C)NN=c2s/c(=C/c3ccc(OC)cc3)c(=O)n2N1` (centres undefined), the GI50 in [1], in [18], in test [3], in test [4], in [5] and in [6] was > 100 µM (inactive) throughout. Also, the GI50 in test [7] is > 100 µM (inactive); in test [8], > 100 µM (inactive); in [9] it was > 100 µM (inactive); in [19], 80.4 µM (inactive); in test [10] it was > 100 µM (inactive); in test [11], > 100 µM (inactive). The GI50 in test [20] is > 100 µM (inactive); in [12], 38.2 µM (inactive); in [14], 65 µM (inactive); in [15], > 100 µM (inactive); in test [16], > 100 µM (inactive); in test [17], > 100 µM (inactive).

Regarding `O=S(=O)(/N=C(\NO)Nc1ccc(Cl)cc1)c1ccc(-c2ccccn2)s1`, the GI50 in test [1] was 90.8 µM (inactive); in test [18], 52.1 µM (inactive); in test [2], 39.7 µM; in test [3] it was 37.3 µM (inactive); in test [4], 35.6 µM (inactive); in test [5], 69.5 µM (inactive). Further, the GI50 in [6] is 86.9 µM (inactive); in test [7], 48.1 µM (inactive); in [8], 87.3 µM (inactive); in test [9], 61 µM (inactive); in [19], 4.03 µM (inactive); in test [11] it was 34.3 µM (inactive). The GI50 was 11.5 µM (inactive) in test [20]; 50.7 µM (inactive) in test [12]; 35.7 µM (inactive) in test [14]; 24.4 µM (inactive) in test [15]; 6.25 µM (inactive) in [16]; 38.5 µM (inactive) in test [17].

Consider `CN(C)CCNC(=O)c1cccc2c1Nc1ccccc1S2`, for which the GI50 is 11.5 µM (inactive) in [1]; 15.7 µM (inactive) in [18]; 16 µM in [2]; 14.6 µM (inactive) in test [3]; 15.8 µM (inactive) in test [5]; 12.7 µM (inactive) in test [6]. The GI50 was 16.7 µM (inactive) in test [7]; 11.2 µM (inactive) in [8]; 14.7 µM (inactive) in test [9]; 14.5 µM (inactive) in [19]; 13.9 µM (inactive) in test [10]; 5.45 µM (inactive) in test [11]. Also, the GI50 was 6.81 µM (inactive) in test [12]; 9.57 µM (inactive) in test [13]; 15.8 µM (inactive) in test [14]; 13 µM (inactive) in test [15]; 11.3 µM (inactive) in test [17].
